Test system: 922993-354-T-J3-PDC complex spheroids, viability
Experiment: Anticancer human tumor 922993-354-T-J3-PDC patient-derived endometrial carcinoma cell line growth inhibition [GQUAD]
Details: for IC50: curve of first compound; for viability, T/C: stronger effect = lower value
How it was run: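 Tumor cells were grown as complex spheroids with HUVEC endothelial cells and mesenchymal stem cells as stroma. G-quadruplex stabilizers were combined with targeted agents over half-log dilutions from near the clinical Cmax, or from 10 microM.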
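Further: spheroids exposed to compounds for seven days.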
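Wherever viability, T/C is given: 100% = DMSO vehicle control viability.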

C=CC(=O)N1CCN(c2nc(=O)n(-c3c(C)ccnc3C(C)C)c3nc(-c4c(O)cccc4F)c(F)cc23)C(C)C1 (configuration not stated) + Cc1[nH]c2ccc(F)cc2c1-c1nc2c3cccnc3c3ncccc3c2[nH]1
IC50 (second compound 0.0316 µM): > 10 µM
IC50 (second compound 0.1 µM): > 10 µM
IC50 (second compound 0.316 µM): > 10 µM
IC50 (second compound 1 µM): > 10 µM
IC50 (second compound 3.16 µM): > 10 µM
IC50 (second compound 10 µM): > 10 µM
viability, T/C (second compound 0.0316 µM, first compound 0.0316 µM): 94.6%
viability, T/C (second compound 0.0316 µM, first compound 0.1 µM): 86%
viability, T/C (second compound 0.0316 µM, first compound 0.316 µM): 94.8%
viability, T/C (second compound 0.0316 µM, first compound 1 µM): 101%
viability, T/C (second compound 0.0316 µM, first compound 3.16 µM): 111%
viability, T/C (second compound 0.0316 µM, first compound 10 µM): 116%
viability, T/C (second compound 0.1 µM, first compound 0.0316 µM): 106%
viability, T/C (second compound 0.1 µM, first compound 0.1 µM): 69.4%
viability, T/C (second compound 0.1 µM, first compound 0.316 µM): 99.3%
viability, T/C (second compound 0.1 µM, first compound 1 µM): 127%
viability, T/C (second compound 0.1 µM, first compound 3.16 µM): 92%
viability, T/C (second compound 0.1 µM, first compound 10 µM): 98.7%
viability, T/C (second compound 0.316 µM, first compound 0.0316 µM): 130%
viability, T/C (second compound 0.316 µM, first compound 0.1 µM): 95%
viability, T/C (second compound 0.316 µM, first compound 0.316 µM): 117%
viability, T/C (second compound 0.316 µM, first compound 1 µM): 118%
viability, T/C (second compound 0.316 µM, first compound 3.16 µM): 114%
viability, T/C (second compound 0.316 µM, first compound 10 µM): 113%
viability, T/C (second compound 1 µM, first compound 0.0316 µM): 92.9%
viability, T/C (second compound 1 µM, first compound 0.1 µM): 124%
viability, T/C (second compound 1 µM, first compound 0.316 µM): 133%
viability, T/C (second compound 1 µM, first compound 1 µM): 112%
viability, T/C (second compound 1 µM, first compound 3.16 µM): 93.6%
viability, T/C (second compound 1 µM, first compound 10 µM): 107%
viability, T/C (second compound 3.16 µM, first compound 0.0316 µM): 114%
viability, T/C (second compound 3.16 µM, first compound 0.1 µM): 91.2%
viability, T/C (second compound 3.16 µM, first compound 0.316 µM): 105%
viability, T/C (second compound 3.16 µM, first compound 1 µM): 104%
viability, T/C (second compound 3.16 µM, first compound 3.16 µM): 96.2%
viability, T/C (second compound 3.16 µM, first compound 10 µM): 88%
viability, T/C (second compound 10 µM, first compound 0.0316 µM): 88.7%
viability, T/C (second compound 10 µM, first compound 0.1 µM): 103%
viability, T/C (second compound 10 µM, first compound 0.316 µM): 81.3%
viability, T/C (second compound 10 µM, first compound 1 µM): 90.7%
viability, T/C (second compound 10 µM, first compound 3.16 µM): 103%
viability, T/C (second compound 10 µM, first compound 10 µM): 87.1%
